Assay results reported in patent US9211310B2, “Use of a Chinese medicine composition in preparing medicaments for treating secondary prevention of myocardial infarction” (TASLY PHARMACEUTICAL GROUP CO., LTD, priority 2010, dated 2015).

Tested on: patients after acute myocardial infarction
Test: TCM symptom score, total and single (chest pain, chest tightness, short breath, fatigue, palpitation, spontaneous perspiration, pale complexion), same clinical trial
Assay type: in vivo, human
Parameters: total score of TCM symptom, Mean / total score of TCM symptom, Min / total score of TCM symptom, Max / total score of TCM symptom, Md / change of total score of TCM symptom, Mean / change of total score of TCM symptom, Max / change of total score of TCM symptom, Md: scale not given here
Details: PP
Text: 3508 patients who were in accordance with the diagnostic standards of AMI for 28 days to 2 years and differentiated as Qi deficiency and blood stagnation syndrome by TCM were studied. 0.5 g Chinese medicine composition prepared by the method of EXAMPLE 1 (Coded as QSYQ) was administrated half an hour after meal, 3 times per day.
They included the overall survival time, angina pectoris score, TCM symptom score and life quality score, where angina pectoris score, TCM symptom score and life quality score were evaluated at randomization, in 1st, 3rd, 6th, 9th, 12th month after treatment and 18th month after follow-up.
The analysis method referred to the angina pectoris score.

[1] = 6 months after treatment-baseline
[2] = 9 months after treatment-baseline

CC(=O)Oc1ccccc1C(=O)O [Control group, aspirine]
change of spontaneous perspiration 0, number of patients [1]: 774 | change of spontaneous perspiration 0, percent of patients [1]: (54.32%) | change of spontaneous perspiration 1, number of patients [1]: 414 | change of spontaneous perspiration 1, percent of patients [1]: (29.05%) | change of spontaneous perspiration 2, number of patients [1]: 88 | change of spontaneous perspiration 2, percent of patients [1]: (6.18%) | change of spontaneous perspiration 3, number of patients [1]: 24 | change of spontaneous perspiration 3, percent of patients [1]: (1.68%) | change of spontaneous perspiration −1, number of patients [1]: 105 | change of spontaneous perspiration −1, percent of patients [1]: (7.37%) | change of spontaneous perspiration −2, number of patients [1]: 20 | change of spontaneous perspiration −2, percent of patients [1]: (1.40%) | change of spontaneous perspiration −3, number of patients [1]: 0 | change of spontaneous perspiration −3, percent of patients [1]: (0.00%) | change of total score of TCM symptom, Max [1]: 19.00 | change of total score of TCM symptom, Md [1]: −3.00 | change of total score of TCM symptom, Mean [1]: −4.11 | change of total score of TCM symptom, Min [1]: −28.00 | distribution of total score of TCM symptom: Medium, number of patients (9 months after treatment): 323 | distribution of total score of TCM symptom: Medium, percentage of patients (9 months after treatment): (22.84%) | distribution of total score of TCM symptom: Mild, number of patients (9 months after treatment): 1088 | distribution of total score of TCM symptom: Mild, percentage of patients (9 months after treatment): (76.94%) | distribution of total score of TCM symptom: Severe, number of patients (9 months after treatment): 3 | distribution of total score of TCM symptom: Severe, percentage of patients (9 months after treatment): (0.21%) | fatigue score 0, % of patients (9 months after treatment): (35.22%) | fatigue score 0, number of patients (9 months after treatment): 498 | fatigue score 2, % of patients (9 months after treatment): (60.61%) | fatigue score 2, number of patients (9 months after treatment): 857 | fatigue score 4, % of patients (9 months after treatment): (3.47%) | fatigue score 4, number of patients (9 months after treatment): 49 | fatigue score 6, % of patients (9 months after treatment): (0.71%) | fatigue score 6, number of patients (9 months after treatment): 10 | pale complexion score 0, number of patients (9 months after treatment): 788 | pale complexion score 0, percent of patients (9 months after treatment): (55.69%) | pale complexion score 1, number of patients (9 months after treatment): 520 | pale complexion score 1, percent of patients (9 months after treatment): (36.75%) | pale complexion score 2, number of patients (9 months after treatment): 101 | pale complexion score 2, percent of patients (9 months after treatment): (7.14%) | pale complexion score 3, number of patients (9 months after treatment): 6 | pale complexion score 3, percent of patients (9 months after treatment): (0.42%) | palpitation score 0, number of patients (9 months after treatment): 496 | palpitation score 0, percent of patients (9 months after treatment): (35.05%) | palpitation score 2, number of patients (9 months after treatment): 782 | palpitation score 2, percent of patients (9 months after treatment): (55.27%) | palpitation score 4, number of patients (9 months after treatment): 122 | palpitation score 4, percent of patients (9 months after treatment): (8.62%) | palpitation score 6, number of patients (9 months after treatment): 15 | palpitation score 6, percent of patients (9 months after treatment): (1.06%) | short breath score 0, % of patients (9 months after treatment): (29.42%) | short breath score 0, number of patients (9 months after treatment): 416 | short breath score 3, % of patients (9 months after treatment): (58.27%) | short breath score 3, number of patients (9 months after treatment): 824 | short breath score 6, % of patients (9 months after treatment): (11.95%) | short breath score 6, number of patients (9 months after treatment): 169 | short breath score 9, % of patients (9 months after treatment): (0.35%) | short breath score 9, number of patients (9 months after treatment): 5 | spontaneous perspiration score 0, number of patients (9 months after treatment): 678 | spontaneous perspiration score 0, percent of patients (9 months after treatment): (47.95%) | spontaneous perspiration score 1, number of patients (9 months after treatment): 652 | spontaneous perspiration score 1, percent of patients (9 months after treatment): (46.11%) | spontaneous perspiration score 2, number of patients (9 months after treatment): 79 | spontaneous perspiration score 2, percent of patients (9 months after treatment): (5.59%) | spontaneous perspiration score 3, number of patients (9 months after treatment): 5 | spontaneous perspiration score 3, percent of patients (9 months after treatment): (0.35%) | total score of TCM symptom, Max (9 months after treatment): 37.00 | total score of TCM symptom, Md (9 months after treatment): 8.00 | total score of TCM symptom, Mean (9 months after treatment): 8.88 | total score of TCM symptom, Min (9 months after treatment): 0.00 | change of fatigue 0, % of patients [2]: (48.12%) | change of fatigue 0, number of patients [2]: 679 | change of fatigue 2, % of patients [2]: (35.65%) | change of fatigue 2, number of patients [2]: 503 | change of fatigue 4, % of patients [2]: (7.94%) | change of fatigue 4, number of patients [2]: 112 | change of fatigue 6, % of patients [2]: (1.28%) | change of fatigue 6, number of patients [2]: 18 | change of fatigue −2, % of patients [2]: (6.52%) | change of fatigue −2, number of patients [2]: 92 | change of fatigue −4, % of patients [2]: (0.50%) | change of fatigue −4, number of patients [2]: 7 | change of fatigue −6, % of patients [2]: (0.00%) | change of fatigue −6, number of patients [2]: 0 | change of pale complexion 0, number of patients [2]: 1049 | change of pale complexion 0, percent of patients [2]: (74.66%) | change of pale complexion 1, number of patients [2]: 316 | change of pale complexion 1, percent of patients [2]: (22.49%) | change of pale complexion −1, number of patients [2]: 40 | change of pale complexion −1, percent of patients [2]: (2.85%) | change of palpitation 0, number of patients [2]: 749 | change of palpitation 0, percent of patients [2]: (53.12%) | change of palpitation 1, number of patients [2]: 493 | change of palpitation 1, percent of patients [2]: (34.96%) | change of palpitation 2, number of patients [2]: 71 | change of palpitation 2, percent of patients [2]: (5.04%) | change of palpitation 3, number of patients [2]: 6 | change of palpitation 3, percent of patients [2]: (0.43%) | change of palpitation −1, number of patients [2]: 87 | change of palpitation −1, percent of patients [2]: (6.17%) | change of palpitation −2, number of patients [2]: 4 | change of palpitation −2, percent of patients [2]: (0.28%) | change of short breath 0, % of patients [2]: (56.60%) | change of short breath 0, number of patients [2]: 798 | change of short breath 2, % of patients [2]: (33.33%) | change of short breath 2, number of patients [2]: 470 | change of short breath 4, % of patients [2]: (3.83%) | change of short breath 4, number of patients [2]: 54 | change of short breath 6, % of patients [2]: (0.50%) | change of short breath 6, number of patients [2]: 7 | change of short breath −2, % of patients [2]: (5.53%) | change of short breath −2, number of patients [2]: 78 | change of short breath −4, % of patients [2]: (0.14%) | change of short breath −4, number of patients [2]: 2 | change of short breath −6, % of patients [2]: (0.07%) | change of short breath −6, number of patients [2]: 1 | change of spontaneous perspiration 0, number of patients [2]: 717 | change of spontaneous perspiration 0, percent of patients [2]: (50.85%) | change of spontaneous perspiration 1, number of patients [2]: 434 | change of spontaneous perspiration 1, percent of patients [2]: (30.78%) | change of spontaneous perspiration 2, number of patients [2]: 105 | change of spontaneous perspiration 2, percent of patients [2]: (7.45%) | change of spontaneous perspiration 3, number of patients [2]: 26 | change of spontaneous perspiration 3, percent of patients [2]: (1.84%) | change of spontaneous perspiration −1, percent of patients [2]: (8.65%) | change of spontaneous perspiration −2, number of patients [2]: 6
